The record followed here is US7906122B2 (priority 2003, dated 2011).

The subject of the experiment is the 3 viral strains (pooled HN). Details: species or system BALB/c mice. As to conditions: mouse, in vivo.

With “N-palmitoyl D-erythro sphingosyl carbamoyl-spermine [CCS]”, the “immunogenicity of CCS alone compared to CCS/Chol as the vaccine carrier” value was “no difference in immunogenicity”.
